Measured values taken from patent publication US20100204128A1, “NOVEL PEPTIDES” (SANARE INVESTMENT AS, priority 2007, published 2010).
Values joined by “and” are separate entries in the source; they are usually repeats but may differ in a detail not shown here. Equal values may be shown once.

Experiments:
Format in all cases: cell-based
Settings in all cases: 24 hours, duplicate wells
T47D cells = assay: AlmarBlue fluorescence cell growth test, T47D cells
Description: (§1) Re-feed media were prepared to yield the following final six concentrations of each of the 12 peptides: 5×10^−3, 5×10^−4, 5×10^−5, 5×10^−6, 5×10^−7, and 5×10^−8M. […] With that, the 5×10^−3M mixture contains about 0.42×10^−3M of each peptide. […] With that, the 5×10^−3M mixture contains about 0.42×10^−3M of each of said 8 peptides.
(§2) MCF-7 and T47D cells were seeded into 96-well plates at a density of 10,000 cells per well in 90 μL of appropriate culture medium. TMX2-28 cells were seeded into 96-well plates at a density of 5,000 cells per well in 90 μL of appropriate culture medium. Plates were placed in a 37° C., 5% CO2 incubator and cells were allowed to attach to the bottom of the well for 24 hours after which 10 μL of the appropriate refeed medium was added. Each concentration was tested in duplicate in each cell line. […] Cells were then incubated for 24 hours. Subsequently 10 μL of AlmarBlue (Biosource) was added to each well. After three hours, the fluorescence was detected using a Packard Instrument Plate Reader with 535/20 excitation and 590/20 emission filters.

TMX2-28 cells = assay: AlmarBlue fluorescence cell growth test, TMX2-28 cells
Description: With that, the 5×10^−3M mixture contains about 0.42×10^−3M of each peptide. Furthermore, mixtures containing equal volumes of peptides SEQ ID NO:2-SEQ ID NO:7, SEQ ID NO:10 and SEQ ID NO:11 were also prepared (equal volumes of said re-feed media) to yield the following final six concentrations: […] With that, the 5×10^−3M mixture contains about […].
as §2

MCF-7 cells = assay: AlmarBlue fluorescence cell growth test, MCF-7 cells
Description: as §1, §2

[1] = 5 × 10^−4 M (mixtures: total concentration), decrease vs DC5 = reduced cell growth
[2] = 5 × 10^−5 M (mixtures: total concentration)
[3] = 5 × 10^−6 M (mixtures: total concentration)
[4] = 5 × 10^−7 M (mixtures: total concentration)
[5] = 5 × 10^−8 M (mixtures: total concentration)
[6] = 5 × 10^−9 M (mixtures: total concentration)

Row | Substance | fluorescent readings (T47D cells; [1]) | fluorescent readings (T47D cells; [2]) | fluorescent readings (T47D cells; [3]) | fluorescent readings (T47D cells; [4]) | fluorescent readings (T47D cells; [5]) | fluorescent readings (T47D cells; [6]) | fluorescent readings (TMX2-28 cells; [1]) | fluorescent readings (TMX2-28 cells; [2]) | fluorescent readings (TMX2-28 cells; [3]) | fluorescent readings (TMX2-28 cells; [4]) | fluorescent readings (TMX2-28 cells; [5]) | fluorescent readings (TMX2-28 cells; [6]) | fluorescent readings (MCF-7 cells; [1]) | fluorescent readings (MCF-7 cells; [2]) | fluorescent readings (MCF-7 cells; [3]) | fluorescent readings (MCF-7 cells; [4]) | fluorescent readings (MCF-7 cells; [5]) | fluorescent readings (MCF-7 cells; [6])
1 | SEQIDNO8: synthesised peptide identified in the 10 kDa blood fraction after acupuncture; sequence not printed in the text (GVLLVRAPPACLQVLR; Derived from human blood sample) | 62688 and 60767 | 68041 and 64777 | 66479 and 60908 | 65388 and 63864 | 64353 and 63685 | 64124 and 63134 | 63114 and 65457 | 67475 and 69324 | 68833 and 70414 | 70559 and 72074 | 70603 and 73593 | 68676 and 68864 | 64002 and 64485 | 68720 and 70447 | 69897 and 70376 | 68985 and 70404 | 68423 and 68263 | 61653 and 66015
2 | SEQIDNO9: synthesised peptide identified in the 10 kDa blood fraction after acupuncture; sequence not printed in the text (SSNNGCMRDPTLYRCK; Derived from human blood sample) | 67492 and 77427 | 63181 and 64535 | 62848 and 62359 | 63130 and 68689 | 60146 and 64467 | 65094 and 67070 | 71608 and 70176 | 69255 and 69328 | 69234 and 68280 | 67663 and 69155 | 67229 and 67807 | 68009 and 65131 | 67879 and 68176 | 65563 and 69218 | 65046 and 65931 | 63071 and 65962 | 57728 and 62231 | 62556 and 61065
3 | SEQIDNO10: synthesised peptide identified in the 10 kDa blood fraction after acupuncture; sequence not printed in the text (GGVLSPADKTNVK; Derived from human blood sample) | 58905 and 62040 | 62235 and 61799 | 61232 and 61422 | 61576 and 62488 | 62058 and 61865 | 63213 and 64672 | 74950 and 67668 | 70143 and 70096 | 68926 and 71006 | 68674 and 69541 | 67904 and 70174 | 64358 and 65678 | 66888 and 71581 | 67041 and 68134 | 68442 and 69458 | 67343 and 65315 | 62238 and 64184 | 62410 and 63264
4 | SEQIDNO11: synthesised peptide identified in the 10 kDa blood fraction after acupuncture; sequence not printed in the text (TLAGENQTALEIEELNRK; Derived from human blood sample) | 61976 and 62453 | 61546 and 64267 | 62448 and 60200 | 62557 and 63900 | 62018 and 64649 | 63935 and 65696 | 66600 and 67446 | 67045 and 66528 | 66568 and 64759 | 64371 and 65373 | 65587 and 66707 | 64433 and 65703 | 65114 and 72373 | 65947 and 68983 | 64058 and 64030 | 63837 and 64861 | 60430 and 65118 | 60886 and 63795
5 | SEQIDNO12: synthesised peptide identified in the 10 kDa blood fraction after acupuncture; sequence not printed in the text (PVLTLDMPSSERGK; Derived from human blood sample) | 57184 and 62215 | 62230 and 62786 | 64065 and 63826 | 64023 and 65295 | 65019 and 65289 | 62179 and 65227 | 64801 and 66313 | 67335 and 67800 | 69868 and 69586 | 67062 and 68845 | 68382 and 67167 | 66458 and 66191 | 64634 and 66223 | 67452 and 68292 | 67604 and 67923 | 65967 and 68650 | 64530 and 64993 | 59810 and 61717
